Results from US20110028715A1, “NOVEL ADENINE COMPOUND” (priority 2007, published 2011).

What was measured:
OV-HM ovarian carcinoma = experiment: Antitumor activity: lung metastasis in OV-HM ovarian carcinoma-bearing mouse; format: in vivo, B6C3F1 mouse; conditions: Day 35
Description: OV-HM ovarian carcinoma-bearing B6C3F1 mouse was prepared by intradermally inoculating 1×10^6 viable OV-HM cells in back skin. Tumor was surgically removed ten days after the tumor incubation under isoflurane anesthesia. On Day 11, Day 14, Day 17, Day 20, Day 24, Day 28, and Day 32, a test compound was administered via tail vein at the dose of 1 mg/kg. On Day 35, mouse was euthanized, and lung was collected from the mouse. Metastasized tumor nodules in lung was counted, and the frequency of the metastasized mice was calculated in each group.

IFN-α = IFN-α production inducing activity in mice (plasma IFN-α by L929/2-5AS-Luc bioassay); format: in vivo, B6C3F1 mice; conditions: 3 hours after 1 mg/kg intravenously via tail vein, mean ± standard deviation (n = 3)
Description: A test compound was administered to B6C3F1 mice (Charles River Japan, Inc.) via tail vein at the dose of 1 mg/kg intravenously. After 3 hours, total blood was collected into a sample tube containing heparin. Plasma was prepared from total blood after centrifugation (3,000 rpm, 10 min, at room temperature) and stored at −20° C.
Murine fibroblasts (L929/2-5AS-Luc), which constitutively expressed luciferase gene in which the promoter region for 2′-5′-oligoadenylate synthase was cloned, was seeded into 96-well plate at 4×10^4 cells/well, and cultured for overnight with diluted plasma or mouse IFN-α. After Luclite (Perkin Elmer) was added to the plate, the luciferase activity was measured with TopCount (Perkin Elmer).
The concentration of IFN-α in plasma was calculated by linear regression of logarithmic transformed concentration of mouse IFN-α and the luciferase activity.

For `CCOc1nc(N)c2[nH]c(=O)n(Cc3ccc(CN(C)C)cc3)c2n1` [Example 63, 6-Amino-9-(4-dimethylaminomethylbenzyl)-2-ethoxy-7,9-dihydropurin-8-one], the Frequency of metastasis (OV-HM ovarian carcinoma; metastasized mice per group, lung, 1 mg/kg via tail vein on Days 11, 14, 17, 20, 24, 28, 32) was 0/6, the Number of tumor (OV-HM ovarian carcinoma; metastasized tumor nodules in lung, 1 mg/kg via tail vein, **p < 0.01 vs vehicle group (Wilcoxon)) was 0.0** and the “Mouse IFN-α” value (IFN-α) was 25.4 ± 13.9 IU/mL.
